Measured values as given in patent US9492471B2, “Methods of treating a disease or disorder associated with Bruton'S Tyrosine Kinase” (Celgene Avilomics Research, Inc., priority 2013, dated 2016).
Like-named read-outs stand apart in the source and are kept apart here.

How the values were obtained:
Assay in all cases: HotSpot kinase profiling
Assay type in all cases: biochemical
DMPK = target: T1, DMPK (Homo sapiens, UniProt Q09013)
T1 construct: purchased Reaction Biology Corp
T1 sequence (Q09013 1-629): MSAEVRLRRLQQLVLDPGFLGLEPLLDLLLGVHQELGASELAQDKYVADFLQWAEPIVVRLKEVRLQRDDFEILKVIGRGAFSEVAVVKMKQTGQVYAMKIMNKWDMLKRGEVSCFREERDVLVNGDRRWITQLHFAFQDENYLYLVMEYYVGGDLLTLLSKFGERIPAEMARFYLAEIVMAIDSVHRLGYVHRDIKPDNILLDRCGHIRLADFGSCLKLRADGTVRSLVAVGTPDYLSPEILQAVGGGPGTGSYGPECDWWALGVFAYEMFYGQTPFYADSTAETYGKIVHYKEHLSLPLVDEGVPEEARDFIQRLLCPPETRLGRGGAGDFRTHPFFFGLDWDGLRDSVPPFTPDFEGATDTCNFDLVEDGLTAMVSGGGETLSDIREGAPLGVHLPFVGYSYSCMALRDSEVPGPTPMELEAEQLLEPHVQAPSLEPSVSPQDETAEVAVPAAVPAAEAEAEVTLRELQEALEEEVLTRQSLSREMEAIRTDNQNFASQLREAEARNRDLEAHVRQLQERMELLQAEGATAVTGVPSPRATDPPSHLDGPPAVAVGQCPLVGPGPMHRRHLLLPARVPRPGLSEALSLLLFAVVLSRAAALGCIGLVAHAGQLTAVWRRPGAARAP
Procedure: (§1) The binding assay system for profiling kinase activity were based upon HotSpot technology (Reaction Biology Corp.; Malvern, Pa., USA) and utilized radio-isotope-based P81 filtration. […] Substrates for the various kinases tested against Compound 2 (substrate information available on the Reaction Biology Corp. website) were prepared fresh daily in Reaction Buffer. Any required cofactors were then added to the substrate solution. The identification and selection of the appropriate cofactor for each kinase is within the ability of a person skilled in the art. See, for example, Handbook of Assay Development in Drug Discovery, Ed. Lisa K. Minor, 2006: CRC Press, Boca Raton, Fla.; Gao et al., “A broad activity screen in support of a chemogenomic map for kinase signalling research and drug discovery,” Biochem J. 2013, 451(2): 313-28; and Eglen et al., “Drug discovery and the human kinome: Recent trends,” Pharmacology & Therapeutics 2011, 130(2): 144-156. The kinase was then added to the substrate solution and gently mixed. […] This was followed by incubation at room temperature for 2 h. The reaction was terminated and any unreacted phosphate was washed away using 0.1% phosphoric acid prior to detection utilizing a proprietary technology. […] DMSO was used as the negative control.
(§2) Percent inhibition was expressed as an average where the assay was performed more than once, e.g., in duplicate.

CDK6/cyclin D1 = target: T2, CDK6/cyclin D1 (Homo sapiens, UniProt Q00534)
T2 construct: purchased Reaction Biology Corp
Procedure: as §1, §2

PLK4/SAK = target: T3, PLK4/SAK (Homo sapiens, UniProt O00444)
T3 construct: purchased Reaction Biology Corp
T3 sequence (O00444 1-970): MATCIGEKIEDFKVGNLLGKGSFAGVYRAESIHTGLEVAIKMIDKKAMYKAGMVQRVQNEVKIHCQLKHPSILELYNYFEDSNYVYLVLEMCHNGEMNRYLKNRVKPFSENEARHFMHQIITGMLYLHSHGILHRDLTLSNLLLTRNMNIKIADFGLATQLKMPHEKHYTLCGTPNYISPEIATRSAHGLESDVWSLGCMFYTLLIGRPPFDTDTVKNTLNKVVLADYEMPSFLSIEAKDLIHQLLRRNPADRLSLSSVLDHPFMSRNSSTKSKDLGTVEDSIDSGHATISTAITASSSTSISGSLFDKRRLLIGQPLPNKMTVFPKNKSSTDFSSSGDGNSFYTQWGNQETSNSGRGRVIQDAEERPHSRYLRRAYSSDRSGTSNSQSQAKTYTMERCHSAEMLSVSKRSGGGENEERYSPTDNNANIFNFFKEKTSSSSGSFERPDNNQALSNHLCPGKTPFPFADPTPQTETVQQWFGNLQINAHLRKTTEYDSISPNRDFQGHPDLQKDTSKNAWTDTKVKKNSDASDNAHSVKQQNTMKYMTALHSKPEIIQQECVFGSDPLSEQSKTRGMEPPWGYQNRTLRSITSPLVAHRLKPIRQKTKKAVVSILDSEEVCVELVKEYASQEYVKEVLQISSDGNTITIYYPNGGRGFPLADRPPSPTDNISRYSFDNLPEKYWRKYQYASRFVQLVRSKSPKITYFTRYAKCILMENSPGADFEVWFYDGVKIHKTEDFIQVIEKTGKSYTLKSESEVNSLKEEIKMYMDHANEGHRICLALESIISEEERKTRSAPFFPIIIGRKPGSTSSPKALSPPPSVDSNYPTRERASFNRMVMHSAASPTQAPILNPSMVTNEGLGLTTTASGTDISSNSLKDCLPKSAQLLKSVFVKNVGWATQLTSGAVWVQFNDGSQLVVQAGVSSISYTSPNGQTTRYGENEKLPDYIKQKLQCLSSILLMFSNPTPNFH
Procedure: as §1, §2

PKCtheta = target: T4, PKCtheta (Homo sapiens, UniProt Q04759)
T4 construct: purchased Reaction Biology Corp
Procedure: as §1, §2

NEK6 = target: T5, NEK6 (Homo sapiens, UniProt Q9HC98)
T5 construct: purchased Reaction Biology Corp
Procedure: as §1, §2

[1] = read-out: % Enzyme Activity (relative to DMSO controls) Run 1
[2] = read-out: % Enzyme Activity (relative to DMSO controls) Run 2

T4 sequence (Q04759 whole entry): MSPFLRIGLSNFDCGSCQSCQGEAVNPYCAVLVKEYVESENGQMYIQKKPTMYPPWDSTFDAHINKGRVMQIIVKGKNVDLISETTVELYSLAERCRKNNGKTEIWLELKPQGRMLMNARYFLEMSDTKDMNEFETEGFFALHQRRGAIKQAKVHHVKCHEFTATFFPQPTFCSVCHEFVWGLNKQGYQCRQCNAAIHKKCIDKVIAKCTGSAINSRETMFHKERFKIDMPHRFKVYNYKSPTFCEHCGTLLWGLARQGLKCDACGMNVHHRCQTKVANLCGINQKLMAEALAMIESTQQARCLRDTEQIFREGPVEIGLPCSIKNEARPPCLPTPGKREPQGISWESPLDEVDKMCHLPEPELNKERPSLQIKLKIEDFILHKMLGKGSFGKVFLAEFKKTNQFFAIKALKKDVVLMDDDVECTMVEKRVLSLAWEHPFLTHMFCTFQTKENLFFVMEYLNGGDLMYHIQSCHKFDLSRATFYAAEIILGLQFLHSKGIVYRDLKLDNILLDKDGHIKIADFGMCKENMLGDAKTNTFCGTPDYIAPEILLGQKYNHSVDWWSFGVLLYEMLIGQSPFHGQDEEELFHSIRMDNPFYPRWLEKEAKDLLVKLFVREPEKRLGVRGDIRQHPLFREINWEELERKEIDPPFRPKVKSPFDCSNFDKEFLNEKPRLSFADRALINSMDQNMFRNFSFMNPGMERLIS
T5 sequence (Q9HC98 whole entry): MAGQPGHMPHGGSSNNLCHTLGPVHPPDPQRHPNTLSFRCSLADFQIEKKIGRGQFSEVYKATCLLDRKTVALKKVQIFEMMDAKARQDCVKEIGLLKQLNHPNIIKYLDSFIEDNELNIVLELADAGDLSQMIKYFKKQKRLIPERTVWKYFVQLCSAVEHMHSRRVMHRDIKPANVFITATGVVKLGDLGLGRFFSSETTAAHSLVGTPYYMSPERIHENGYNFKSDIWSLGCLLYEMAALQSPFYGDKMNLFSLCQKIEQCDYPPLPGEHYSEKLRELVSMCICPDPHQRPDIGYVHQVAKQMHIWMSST
T2 sequence (Q00534 whole entry): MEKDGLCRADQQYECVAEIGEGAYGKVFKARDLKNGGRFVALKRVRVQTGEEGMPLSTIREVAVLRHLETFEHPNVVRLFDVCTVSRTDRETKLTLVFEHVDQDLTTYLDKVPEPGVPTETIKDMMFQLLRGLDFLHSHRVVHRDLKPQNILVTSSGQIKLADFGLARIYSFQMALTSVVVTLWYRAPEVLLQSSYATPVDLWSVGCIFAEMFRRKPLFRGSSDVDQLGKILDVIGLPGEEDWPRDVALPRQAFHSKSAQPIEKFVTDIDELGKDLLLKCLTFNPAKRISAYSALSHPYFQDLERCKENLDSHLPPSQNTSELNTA
T2 sequence (P24385 whole entry partner): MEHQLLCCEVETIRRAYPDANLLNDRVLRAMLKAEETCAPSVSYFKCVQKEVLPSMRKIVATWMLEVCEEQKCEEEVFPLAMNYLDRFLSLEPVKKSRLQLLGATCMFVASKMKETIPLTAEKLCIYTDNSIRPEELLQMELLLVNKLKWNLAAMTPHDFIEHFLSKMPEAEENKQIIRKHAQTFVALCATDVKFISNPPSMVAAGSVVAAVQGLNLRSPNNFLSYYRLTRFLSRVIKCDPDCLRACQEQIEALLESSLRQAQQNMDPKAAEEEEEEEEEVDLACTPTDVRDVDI

With `C=CC(=O)Nc1cccc(Nc2nc(Nc3ccc(OCCOC)c(F)c3)ncc2F)c1` [Compound 2] the inhibition at 3 µM (DMPK) was -3.25%, the remaining activity at 3 µM (DMPK; [1]) was 104% and the remaining activity at 3 µM (DMPK; [2]) was 102%. It also gave an inhibition at 3 µM (CDK6/cyclin D1) of -0.92%, a remaining activity at 3 µM (CDK6/cyclin D1; [1]) of 101% and a remaining activity at 3 µM (CDK6/cyclin D1; [2]) of 100%. It also gave an inhibition at 3 µM (PLK4/SAK) of 45%, a remaining activity at 3 µM (PLK4/SAK; [1]) of 54.8% and a remaining activity at 3 µM (PLK4/SAK; [2]) of 55.2%. It also gave an inhibition at 3 µM (PKCtheta) of 16.1%, a remaining activity at 3 µM (PKCtheta; [1]) of 83.7% and a remaining activity at 3 µM (PKCtheta; [2]) of 84.1%. The inhibition at 3 µM (NEK6) was -5.69%, the remaining activity at 3 µM (NEK6; [1]) was 106% and the remaining activity at 3 µM (NEK6; [2]) was 105%.
